According to patent publication US10561705B2, “Agonist peptide for adiponectin receptor” (priority 2016, dated 2020):
pKd: −log10 of the molar value. Square brackets hold non-standard residues; d marks the D form. Peptide text beside a SMILES is read from it. Nva = CCC[C@H](N)C(=O)O

Legend:
[1] = biological target: T1, adiponectin receptor ADIPOR1 (Homo sapiens, UniProt Q96A54); assay: Kd (uM)
T1 construct: Flag tag (N); made in house; host or cells: SF9 insect cells (baculovirus, pFASTbac1)
Source text: Table printed on a drawing sheet, FIG. 1
Head of the field: Kd (uM)
Where the first naming reader finds the target: description_of_the_figure: dissociation constant values of synthetic peptides (3 peptides from 3rd round, 4 peptides from 4th round) from the adiponectin receptor ADIPOR1

[2] = biological target: T2, adiponectin receptor 1 (ADIPOR1) (Homo sapiens, UniProt Q96A54); assay: Surface plasmon resonance (SPR) binding of peptide to immobilized recombinant ADIPOR1; conditions: ADIPOR1 amine-coupled to CM5 chip, running buffer pH 7.4, read-out: dissociation constant (Kd) from ADIPOR1
T2 construct: Flag tag (N); made in house; host or cells: SF9 insect cells (baculovirus, pFASTbac1)
T2 sequence (Q96A54 89-375): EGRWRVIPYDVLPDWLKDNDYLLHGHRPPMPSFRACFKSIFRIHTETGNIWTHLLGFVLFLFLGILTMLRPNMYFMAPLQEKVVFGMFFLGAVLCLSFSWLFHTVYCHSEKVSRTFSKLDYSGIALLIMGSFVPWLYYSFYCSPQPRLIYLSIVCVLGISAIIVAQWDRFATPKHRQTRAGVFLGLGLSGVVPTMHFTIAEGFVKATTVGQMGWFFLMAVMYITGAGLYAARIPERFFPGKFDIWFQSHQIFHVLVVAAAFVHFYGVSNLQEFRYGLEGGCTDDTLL
Source text: The ADIPOR1 protein sequence used was the same as that used for the ADIPOR1 structure analysis, in which 88 amino acids at the N-terminal have been removed. The gene capable of producing the protein sequence was synthesized by codon optimization (IDT). At the time, a BamHI restriction enzyme site, a Flag tag and a TEV protease recognition sequence (ENLYFQG; SEQ ID NO: 11) were inserted at the 5′ end and an EcoRI restriction enzyme site was inserted at the 3′ end in order to facilitate cloning and purify the expressed protein. The obtained gene was inserted into the pFASTbac1 vector required for baculovirus production to perform cloning. The cloned vector was transfected into DH10 bac (Invitrogen) to obtain a bacmid comprising the ADIPOR1 gene through recombination. In order to produce baculovirus, the obtained bacmid was transfected into SF9 cells (5×10^4 cells) using Transfectine (Qiagen), and the baculovirus secreted in a medium was collected after 5 days. Then, a large amount of baculovirus was produced through amplification. The obtained baculovirus was inoculated into SF9 cells (5×10^6 cells/ml) cultured in a 1 L SFM900 medium, and protein was expressed at a temperature of 27° C. for 3 days. The SF9 cells expressing recombinant ADIPOR1 were obtained through centrifugation. The obtained cell pellets were aliquoted and stored at −80° C., and used in protein purification as needed to minimize the disadvantages of membrane proteins, which have the possibility of inactivation due to storage after purification. The ADIPOR1, which is a membrane protein expressed on a cell membrane, was solubilized using a detergent (1% DDM) for purification. The dissolved sample was reacted with anti-Flag antibody bead (Sigma) for 1 hour in ice. Then, ADIPOR1 bound to the anti-Flag antibody bead was eluted with Flag peptide. The primarily purified ADIPOR1 was subjected to size exclusion chromatography (Supderdex200, GE healthcare) to obtain only monomeric, proteins. […]
In order to analyze the binding force between peptide and ADIPOR1, a purified recombinant ADIPOR1 (A88) was bound to a CM5 chip with 3000 RU or higher through amine coupling. […] The affinity value was calculated using the affinity fitting or kinetics fitting method. […] The peptide concentrations were calculated by measuring the […] and A280 absorbance of each peptide.
With reference to FIGS. 3 and 4, surface plasmon resonance (SPR) experiments were performed in the present invention to measure the dissociation constant between the agonist peptide and the adiponectin receptor, particularly adiponectin receptor 1 (ADIPOR1). First, an expressed and purified adiponectin receptor ADIPOR1 was immobilized and its dissociation constant from candidate peptides was measured over a total of 4 rounds.

[3] = tested on: AMPK phosphorylation in HepG2 cell line; assay: Western blotting of AMPK phosphorylation in HepG2 cell line; type: cell-based; conditions: HepG2, 5 h starvation, 30 min treatment; tested at 20, 4 and 0.8 uM
Experimental: (§1) C2C12 and HepG2 cells were purchased from ATCC. Before use, they were cultured in a DMEM (Hyclone) medium supplemented with 10% FBS (Hyclone) and 1% penicillin/streptomycin in an incubator at 37° C. in a 5% CO2 environment.
(§2) Based on the prior finding, after optimization of the number of the cells to be used for experiment, HepG2 was starved for 5 hours, recovered, and treated with peptide for 30 minutes, and C2C12 was starved for 24 hours and treated with peptide for 10 minutes. The treated cell samples were washed once with cold PBS and lysed for 15 minutes with a RiPA buffer containing a protease inhibitor and a phosphatase inhibitor. After 15 minutes, centrifugation was carried out at 14000 rpm for 5 minutes to collect only proteins. After quantification, 4× sample buffer and 2-ME were added to prepare a sample for western blotting. The western blotting was performed using a conventional western blotting technique. The antibodies of AMPK, p-AMPK, p-AKT, p-ACC and GAPDH were diluted to 1:1000 or 1:2000 depending on the type thereof and imaging was performed with a LAS-4000 instrument.
HepG2 cell line was plated on a 12-well plate at a concentration of 8*10^5 cells/well on the day before the experiment. […]

[4] = tested on: AMPK phosphorylation in C2C12 cell line; assay: Western blotting of AMPK phosphorylation in differentiated C2C12 myotubes; type: cell-based; conditions: 10 min treatment, tested at 20, 4 and 0.8 uM
Experimental: as §1
C2C12 cells were plated in 12 wells. […] Then, the medium was replaced with a differentiation medium in which DMEM is supplemented with 2.5% horse serum and 1% penicillin/streptomycin. Thereafter, differentiation was performed for 5-7 days, replacing the medium with a new differentiation medium every day. The thus-obtained product was used for experiments.
as §2, with “The antibodies of AMPK, p-AMPK, p-AKT, p-ACC and GAPDH were diluted to 1:1000 or 1:2000 depending on the type thereof and imaging was performed with a LAS-4000 instrument.” left out

T1 sequence (Q96A54 whole entry, looked up): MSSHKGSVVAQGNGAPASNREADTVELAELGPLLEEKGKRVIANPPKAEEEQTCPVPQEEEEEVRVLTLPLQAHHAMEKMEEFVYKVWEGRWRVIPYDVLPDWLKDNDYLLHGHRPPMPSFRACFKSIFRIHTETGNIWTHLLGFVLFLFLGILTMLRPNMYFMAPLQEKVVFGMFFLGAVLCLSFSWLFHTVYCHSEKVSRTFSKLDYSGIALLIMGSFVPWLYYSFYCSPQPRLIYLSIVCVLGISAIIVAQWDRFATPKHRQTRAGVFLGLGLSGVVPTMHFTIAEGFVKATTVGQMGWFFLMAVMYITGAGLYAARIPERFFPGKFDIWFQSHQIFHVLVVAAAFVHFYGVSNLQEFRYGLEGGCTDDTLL

Structure (SMILES)	pKd [1]	pKd [2]	other results
CC[C@H](C)[C@H](NC(=O)[C@H](CC(N)=O)NC(=O)[C@@H]1CCCN1C(=O)[C@H](Cc1c[nH]cn1)NC(=O)[C@H](Cc1ccc(O)cc1)NC(=O)[C@H](C)NC(=O)[C@H](Cc1ccccc1)NC(=O)[C@H](Cc1ccc(O)cc1)NC(=O)[C@@H](N)Cc1ccc(O)cc1)C(=O)N1CCC[C@H]1C(=O)NCC(=O)N[C@@H](CC(C)C)C(=O)N[C@@H](Cc1ccc(O)cc1)C(=O)N[C@@H](Cc1ccc(O)cc1)C(=O)N[C@@H](Cc1ccccc1)C(=O)O [3-1, YYFAYHPNIPGLYYF (SEQ ID NO: 1 where Xaa1 and Xaa13 each is tyrosine)] (H-YYFAYHPNIPGLYYF-OH; N-terminus and C-terminus assumed)	4.80		
CC[C@H](C)[C@H](NC(=O)[C@H](CC(N)=O)NC(=O)[C@@H]1CCCN1C(=O)[C@H](Cc1c[nH]cn1)NC(=O)[C@H](Cc1ccc(O)cc1)NC(=O)[C@H](C)NC(=O)[C@H](Cc1ccccc1)NC(=O)[C@H](Cc1ccc(O)cc1)NC(=O)[C@@H](N)Cc1ccc(O)cc1)C(=O)N1CCC[C@H]1C(=O)NCC(=O)N[C@@H](CC(C)C)C(=O)N[C@@H](Cc1ccc(O)cc1)C(=O)N[C@@H](Cc1ccc(O)cc1)C(=O)N[C@@H](Cc1ccccc1)C(=O)O [peptide 3-1, Tyr-Tyr-Phe-Ala-Tyr-His-Pro-Asn-Ile-Pro-Gly-Leu-Tyr-Tyr-Phe] (H-YYFAYHPNIPGLYYF-OH)		≥ 4.80	

Further lines, with some results ahead:

pKd [1]	pKd [2]	Structure (SMILES)	other results
4.61		CC[C@H](C)[C@H](NC(=O)[C@H](CC(N)=O)NC(=O)[C@@H]1CCCN1C(=O)[C@H](Cc1c[nH]cn1)NC(=O)[C@H](Cc1ccc(O)cc1)NC(=O)[C@H](C)NC(=O)[C@H](Cc1ccccc1)NC(=O)[C@H](CO)NC(=O)[C@@H](N)Cc1ccc(O)cc1)C(=O)N1CCC[C@H]1C(=O)NCC(=O)N[C@@H](CC(C)C)C(=O)N[C@@H](Cc1ccc(O)cc1)C(=O)N[C@@H](Cc1ccc(O)cc1)C(=O)N[C@@H](Cc1ccccc1)C(=O)O [4-5, YSFAYHPNIPGLYYF (SEQ ID NO: 7)] (H-YSFAYHPNIPGLYYF-OH; N-terminus and C-terminus assumed)	
	≤ 4.00	CCC[C@H](NC(=O)[C@@H]1CCCN1C(=O)[C@@H](NC(=O)[C@H](N)CC(N)=O)[C@@H](C)CC)C(=O)N[C@@H](CC(C)C)C(=O)N[C@@H](Cc1ccc(O)cc1)C(=O)N[C@H](CO)C(=O)N[C@@H](Cc1ccccc1)C(=O)N[C@@H](C)C(=O)N[C@H](CO)C(N)=O [ADP355, H-DAsn-Ile-Pro-Nva-Leu-Tyr-DSer-Phe-Ala-DSer-NH2] (H-[dN]IP[Nva]LY[dS]FA[dS]-NH2)	concentration from which AMPK was phosphorylated [3]: 20 µM; concentration from which AMPK was phosphorylated [4]: 4 µM
	5.00 to 5.22	CC[C@H](C)[C@H](NC(=O)[C@H](CC(N)=O)NC(=O)[C@@H]1CCCN1C(=O)[C@H](Cc1c[nH]cn1)NC(=O)[C@H](Cc1ccc(O)cc1)NC(=O)[C@H](C)NC(=O)[C@H](Cc1ccccc1)NC(=O)[C@H](Cc1ccc(O)cc1)NC(=O)[C@@H](N)Cc1c[nH]c2ccccc12)C(=O)N1CCC[C@H]1C(=O)NCC(=O)N[C@@H](CC(C)C)C(=O)N[C@@H](Cc1c[nH]c2ccccc12)C(=O)N[C@@H](Cc1ccc(O)cc1)C(=O)N[C@@H](Cc1ccccc1)C(=O)O [peptide 4-3, Trp-Tyr-Phe-Ala-Tyr-His-Pro-Asn-Ile-Pro-Gly-Leu-Trp-Tyr-Phe] (H-WYFAYHPNIPGLWYF-OH)	
	5.37 to 5.70	CC[C@H](C)[C@H](NC(=O)[C@H](CC(N)=O)NC(=O)[C@@H]1CCCN1C(=O)[C@H](Cc1c[nH]cn1)NC(=O)[C@H](Cc1ccc(O)cc1)NC(=O)[C@H](C)NC(=O)[C@H](Cc1ccccc1)NC(=O)[C@H](Cc1ccc(O)cc1)NC(=O)[C@@H](N)Cc1ccccc1)C(=O)N1CCC[C@H]1C(=O)NCC(=O)N[C@@H](CC(C)C)C(=O)N[C@@H](Cc1ccccc1)C(=O)N[C@@H](Cc1ccc(O)cc1)C(=O)N[C@@H](Cc1ccccc1)C(=O)O [peptide 4-4, Phe-Tyr-Phe-Ala-Tyr-His-Pro-Asn-Ile-Pro-Gly-Leu-Phe-Tyr-Phe] (H-FYFAYHPNIPGLFYF-OH)	
